# In paper PMC11206678, “Peptide-Alkoxyamine Drugs: An Innovative Approach to Fight Schistosomiasis: “Digging Their Graves with Their Forks”” (Pathogens, 2024):
# Where a name gives a salt, the structure may show the parent alone. Square brackets hold non-standard residues; d marks the D form. Peptide text beside a SMILES is read from it. * marks the point of attachment. Boc = CC(C)(C)OC(=O)*; OBn = c1ccc(CO*)cc1
# Key:
# [1] = test system: Vero cells; assay type: cell-based; conditions: 48 h
# Procedure: A non-cancer line of Vero cells was used to determine the cytotoxicity of the compound against mammalian cells. They were evaluated at a final DMSO concentration of 0.5%. The culture medium was MEM (Dutscher, Bernolsheim, France) supplemented with 10% fetal bovine serum (Fisher Scientific, Illkirch, France), 1X non-essential amino acids (Fisher Scientific, Illkirch, France), 100 U/mL, 100 µg/mL penicillin/streptomycin (Fisher Scientific, Illkirch, France), and 2 mM L-glutamine (Fisher Scientific, Illkirch, France) at 37 °C in a humidified 5% CO2 atmosphere. Vero cells (100 µL of 10^5 cells/mL per well) were plated in 96-well plates for 24 h then treated with 100 µL of compound dilutions (in duplicate) during 48 h. All molecules were tested from 5 nM to 50 µM. Each well was then examined under the microscope to detect any precipitate formation before the supernatant was removed by flicking the plate. A volume of 100 µL of 0.5 mg/mL in MEM from a stock solution at 5 mg/mL of PBS-dissolved MTT (3-(4,5-dimethylthiazol-2-yl)-2,5-diphenyltetrazolium bromide, Sigma Aldrich/Merck, Darmstadt, Germany) was then added to each well [20].
# After incubation for 1 h at 37 °C and 5% CO2 the supernatant was removed and 100 µL of DMSO were added. Plates were gently shaken to dissolve formazan crystals resulting from the MTT reduction by living cells and read at 570 nm with the VICTOR Nivo plate reader (Perkin Elmer, Waltham, MA, USA). CC50 values were determined using GraphPad Prism 7 software (San Diego, CA, USA).
# [2] = Homolysis kinetics of alkoxyamines by EPR (growth of nitroxide); assay type: physicochemical; conditions: mixture of diastereoisomers; for Homolysis rate constant kd: 0.1 mM alkoxyamine, O2 as alkyl radical scavenger; for Activation energy Ea: by Equation (2) from kd and T, A = 2.4 10^14 s^−1
# Procedure: Preparation of alkoxyamines and reference samples. All reagents including anhydrous solvents used for the chemical synthesis were purchased from commercially available sources such as Merck, TCI, and Fluorochem, and were used without further purification. All air and/or water-sensitive reactions were carried out under an argon atmosphere with dry solvents using standard syringe-cannula/septa techniques. Routine monitoring of reactions was performed using Merck Silica gel 60 F254, aluminum-supported TLC plates; spots were visualized using UV light and ethanolic acidic para-anisaldehyde solution or ethanolic phosphomolybdic solution, followed by heating. Purifications by means of column chromatography were performed with Silica gel 60 (230–400 mesh). ^1H, ^13C, and ^19F NMR spectra were obtained in CDCl3, MeOD (with residual H2O), D2O, DMSO-d6, or C6D6 solutions on by using Bruker AC400 (400 MHz) and Bruker AC300 (300 MHz) spectrometers. High-resolution mass spectra (HRMS) have been performed using a SYNAPT G2 HDMS (Waters) mass spectrometer equipped with a pneumatically assisted atmospheric pressure ionization (API) source. The sample was ionized in positive electrospray mode under the following conditions: electrospray voltage: 2.8 kV; port voltage: 20 V; Nebulizing gas flow rate (nitrogen): 100 L/h or in negative electrospray mode under the following conditions: electrospray voltage: −2.27 kV; port voltage: −20 V; Nebulizing gas flow rate (nitrogen): 100 L/h. The mass spectra (MS) were obtained with a time-of-flight (TOF) analyzer. The exact mass measurements were carried out in triplicate with external calibration. Homolysis constants were measured by EPR on an EMX Bruker spectrometer from 10^−4 M samples in tertbutyl benzene or in a mixture of H2O-nPrOH (1:1; v:v).
# Kinetic experiments. Kinetics of A1–A7 (Scheme 2) for series L and D are performed by monitoring the growth of nitroxide by Electron Paramagnetic Resonance (X-band EMX Bruker machine) in tert-butylbenzene and a water/n-PrOH (for a good solubility of the alkoxyamine) as solvents and using O2 as alkyl radical scavenger to suppress the back reaction (kc in Scheme 2) as already reported. Homolysis rate constants kd are given by Equation (1) ([nitroxide]∞ = [alkoxyamine]0 = 0.1 mM, see Table S1) and the subsequent activation energies Ea given by Equation (2). (1) lnnitroxide∞−nitroxidet/nitroxide∞=−kd·t, (2) Ea=−RTlnkd/A.
# [3] = test system: Schistosoma mansoni adult worms; assay: Viability of Schistosoma mansoni adult worms in vitro; assay type: cell-based, Schistosoma mansoni NMRI strain; conditions: 37 °C; for time to kill all parasites / time to reach the death of half of the population of worms: Table S1, dose at 100 μg/ml, unit not given in Table S1 (h in Table 2); for Activity/toxicity towards schistosomes (in words): adult worms; for Activity/toxicity towards schistosomes (in words) / Time to Kill 50% of Parasites / Time to Kill 100% of Parasites: 100 μg/mL; for Time to Kill 50% of Parasites / Time to Kill 100% of Parasites: adult worms in RPMI 1640/Tween 80/DMSO, observed up to 72 h, duplicate wells
# Procedure: Experiments on the viability of Schistosoma mansoni adult worms. In vitro tests were performed on Schistosoma mansoni NMRI strains. This parasite is lab maintained on Biomphalaria glabrata (BRE strain) as intermediate mollusc host and Golden Hamster (Janvier Labs, Le Genest-Saint-Isle, France) as definitive vertebrate host. Methods, for molluscs’ and hamsters’ infection and for parasite recovery, were previously described. Adult worms were recovered by hepatic perfusion technique between 42 and 47 days post hamster exposition to parasite larvae. Worms were carefully collected and disposed in 12-well Falcon® plate containing 2 mL of RPMI 1640 (supplemented with L-glutamine and Hepes 25 mM). The plates containing a minimum of 15 worms by well were then placed in an incubator chamber at 37 °C and 5% CO2. The worms sex ratio was almost balanced in each well. The drug was first dissolved in DMSO (Sigma-Aldrich) to give a 100 mg/mL mother solution. Then the stock solution was complemented with Tween 80 and RPMI to obtain the following final ratio dilution: RPMI 1640/Tween 80/DMSO and 1000/0.95/3.8, v/v/v.
# All molecules were tested at a final concentration of 100 µg/mL and 10 µg/mL. A negative control consisted in adding the same RPMI 1640/Tween 80/DMSO solution, but without any drug and a positive control consisted in adding praziquantel. All molecules and control were performed in duplicates of well. The worm viability was checked after 1, 2, 3, 4, 5, 6, 7, 8, 24, 48, and 72 h after adding the molecule.
# [4] = C–ON bond homolysis in water/n-PrOH v/v 1:1, EPR, T (°C): A1L 95.1, A3L 94.5, A4L 94.6, A5L 94.0, A6L 94.8, A7L 94.3, A1D 93.5, A3D 92.6, A4D 95.0, A5D 94.6
Structure (SMILES),CC50 [1] [µM],"Homolysis rate constant kd ([2]; C–ON bond homolysis in t-BuPh, EPR, T (°C): A1L 128.0, A3L 125.0, A5L 130.0, A6L 125, A7L 126.5, A1D 122.5, A3D 119.8, A5D 130)","Homolysis rate constant kd [2, 4]",Activation energy Ea ([2]; in t-BuPh) [kcal/mol],Activation energy Ea ([2]; in water/n-PrOH v/v 1:1) [kcal/mol],time to kill all parasites [3],time to reach the death of half of the population of worms [3],Activity/toxicity towards schistosomes (in words) [3],Time to Kill 50% of Parasites [3] [h],Time to Kill 100% of Parasites [3] [h]
"CC(ON1C(C)(C)CCCC1(C)C)c1ccc(NC(=O)[C@@H](Cc2ccccc2)NC(=O)[C@H](NC(=O)[C@@H](Cc2ccccc2)NC(=O)OC(C)(C)C)C(C)C)cc1 (stereo partly drawn) [A3D, tert-butyl ((2R)-1-(((2R)-3-methyl-1-oxo-1-(((2R)-1-oxo-3-phenyl-1-((4-(1-((2,2,6,6-tetramethylpiperidin-1-yl)oxy)ethyl)phenyl)amino)propan-2-yl)amino)butan-2-yl)amino)-1-oxo-3-phenylpropan-2-yl)carbamate]",> 50,9.6 10^−4 s^−1,0.45 10^−4 s^−1,31.6,31.31,–,–,–,–,–
"CC(ON1C(C)(C)CCCC1(C)C)c1ccc(NC(=O)[C@@H](Cc2ccccc2)NC(=O)[C@H](NC(=O)[C@H](N)Cc2ccccc2)C(C)C)cc1 (stereo partly drawn) [A4D, (2R)-1-(((2R)-3-methyl-1-oxo-1-(((2R)-1-oxo-3-phenyl-1-((4-(1-((2,2,6,6-tetramethylpiperidin-1-yl)oxy)ethyl)phenyl)amino)propan-2-yl)amino)butan-2-yl)amino)-1-oxo-3-phenylpropan-2-aminium trifluoroacetate]",2.6 ± 0.3,–,1.2 10^−4 s^−1,–,30.81,7,2,toxic to schistosomes,–,–
"CC(C)[C@@H](NC(=O)[C@@H](Cc1ccccc1)NC(=O)OC(C)(C)C)C(=O)N[C@H](Cc1ccccc1)C(=O)OCc1ccccc1 [P6D, Benzyl (tert-butoxycarbonyl)-D-phenylalanyl-D-valyl-D-phenylalaninate] (Boc-[dF]-[dV]-[dF]-OBn)",3.2,–,–,–,–,24,4,unexpectedly toxic,–,–
"CC(C)[C@H](NC(=O)[C@H](Cc1ccccc1)NC(=O)OC(C)(C)C)C(=O)N[C@@H](Cc1ccccc1)C(=O)OCc1ccccc1 [P6L, Benzyl (tert-butoxycarbonyl)-L-phenylalanyl-L-valyl-L-phenylalaninate] (Boc-Phe-Val-Phe-OBn)",> 50,–,–,–,–,–,–,–,–,–
"CC(C)[C@@H](NC(=O)[C@H](N)Cc1ccccc1)C(=O)N[C@H](Cc1ccccc1)C(=O)OCc1ccccc1 [P8D, (R)-1-(((R)-1-(((R)-1-(benzyloxy)-1-oxo-3-phenylpropan-2-yl)amino)-3-methyl-1-oxobutan-2-yl)amino)-1-oxo-3-phenylpropan-2-aminium trifluoroacetate] (H-[dF]-[dV]-[dF]-OBn)",> 50,–,–,–,–,1,1,unexpectedly toxic,–,–
"CC(C)[C@H](NC(=O)[C@@H](N)Cc1ccccc1)C(=O)N[C@@H](Cc1ccccc1)C(=O)OCc1ccccc1 [P8L, (S)-1-(((S)-1-(((S)-1-(benzyloxy)-1-oxo-3-phenylpropan-2-yl)amino)-3-methyl-1-oxobutan-2-yl)amino)-1-oxo-3-phenylpropan-2-aminium trifluoroacetate] (H-Phe-Val-Phe-OBn)",> 50,–,–,–,–,24,7,unexpected toxicity,7,24
"CC(C)[C@H](NC(=O)[C@H](Cc1ccccc1)NC(=O)CCC(=O)OCc1ccccc1)C(=O)N[C@@H](Cc1ccccc1)C(=O)OCc1ccccc1 [P9L, Benzyl 4-(((S)-1-(((S)-1-(((S)-1-(benzyloxy)-1-oxo-3-phenylpropan-2-yl)amino)-3-methyl-1-oxobutan-2-yl)amino)-1-oxo-3-phenylpropan-2-yl)amino)-4-oxobutanoate]",> 50,–,–,–,–,5,3,unexpected toxicity,3,5
"CCc1ccc(NC(=O)[C@@H](Cc2ccccc2)NC(=O)[C@H](NC(=O)[C@@H](Cc2ccccc2)NC(=O)OC(C)(C)C)C(C)C)cc1 [P21D, Tert-butyl ((R)-1-(((R)-1-(((R)-1-((4-ethylphenyl)amino)-1-oxo-3-phenylpropan-2-yl)amino)-3-methyl-1-oxobutan-2-yl)amino)-1-oxo-3-phenylpropan-2-yl)carbamate]",> 50,–,–,–,–,24,5,unexpectedly toxic,–,–
"CCc1ccc(NC(=O)[C@@H](Cc2ccccc2)NC(=O)[C@H](NC(=O)[C@H](N)Cc2ccccc2)C(C)C)cc1 [P22D, (R)-1-(((R)-1-(((R)-1-((4-ethylphenyl)amino)-1-oxo-3-phenylpropan-2-yl)amino)-3-methyl-1-oxobutan-2-yl)amino)-1-oxo-3-phenylpropan-2-aminium trifluoroacetate]",11,–,–,–,–,24,4,unexpectedly toxic,–,–
